Results taken from patent publication US11260036B2, “[18F]-labelled lactate derivative as PET radiotracer” (GRANDIS, priority 2016, dated 2022).

What was measured:
rabbit muscle LDH = molecular target: T1, rabbit muscle LDH (Oryctolagus cuniculus, UniProt P13491); assay: Lactate dehydrogenase assay (reduction of 3-fluoropyruvate); assay type: biochemical; details: 10 IU rabbit muscle LDH, NADH 0.2 mM, 37° C., 24 h, HPLC-MS detection
T1 construct: 10 IU of rabbit muscle LDH (Sigma); purchased Sigma; host or cells: rabbit muscle
Experimental: A potential reduction of 3-fluoropyruvate to 3-fluoro-2-hydroxypropionate by lactate dehydrogenase (LDH) was measured in vitro using a previously reported protocol (Goncalves et al., Tetrahedron: Asymmetry, 1996, 7, 1237-1240).
Briefly, 14.6 mg of nonradioactive 3-fluorpyruvate were dissolved in 4 mL of double distilled water containing 10 IU of rabbit muscle LDH (Sigma) and 5.3 IU of formate dehydrogenase (Sigma). The reaction was started by adding NADH to a final concentration of 0.2 mM and sodium formate to a final concentration of 40 mM. The final volume was adjusted to 5 mL with double distilled water. The reaction was carried out at 37° C. for 24 h under constant, gentle shaking at 120 rpm. Then, solution was spun through a 10 kDa filter to remove enzymes, and 3-fluoro-2-hydroxypropionate was detected by HPLC-MS using an Accela U(HPLC) equipped with a Luna Phenomenex 250*4.60 HPLC column and an ThermoScientific LTQ—ORBITRAP—XL fitted an electrospray ionization source working in negative mode.

SQD9 cells = assay: In vitro tracer uptake assay, SQD9; assay type: cell-based, human; details: SQD9, 6 min after delivery of 45 μCi/ml of the tracer
Source text: (§1) Cells and gene silencing. HeLa and SiHa human cervix squamous cell carcinoma and SDQ9 human laryngeal squamous cell carcinoma were from ATCC. Cells were routinely cultured in DMEM (Thermo Fischer) containing glucose (4.5 g/L), Glutamax and 10% FBS. MCT1-deficient and control SiHa cells were produced as previously described (De Saedeleer et al., Oncogene, 2014, 33, 4060-4068), using the following vectors from Open Biosystems: TRCN0000038340 (shMCT1-1) and TRCN0000038339 (shMCT1-2). Control shRNA (shCTR) was Addgene plasmid 1864.
(§2) In vitro tracer uptake assay. A modified version of the ^14C-Lactate uptake assay described by Draoui et al., (Draoui et al., Bioorg Med Chem, 2013, 21, 7107-7117) was used. Briefly, 250,000 cells were plated in flat-bottom 24 well plates (t=0). When cells were attached (t=6 h), medium was replaced by DMEM without glucose and glutamine, containing 10% dialyzed FBS and 10 mM of L-lactate, pH 7.0. Cells were then incubated overnight at 37° C., 5% CO2. On the day of experiment, (t=24 h), cells medium was removed and cells were briefly washed twice with a modified KREBS solution without glucose (HEPES 25 mM, NaCl 120 mM, KCl 4.8 mM, KH2PO4 1.2 mM, MgSO4 1.2 mM, CaCl2 2 mM). […] Cells were lysed with NaOH 0.1 N, and ^18F activity was measured in the cell lysate using a Wiper Gold γ-counter (Laboratory Technologies). Activity is expressed as % of initial dose. […]

SiHa cells = assay: In vitro tracer uptake assay, SiHa; assay type: cell-based, human; details: 6 min after delivery of 45 μCi/ml of the tracer
Source text: as §1, §2

HeLa cells = assay: In vitro tracer uptake assay, HeLa; assay type: cell-based, human; details: 6 min after delivery of 45 μCi/ml of the tracer
Source text: as §1, §2

SQD9 tumors = assay: In vivo tracer uptake assay (PET/CT), mice bearing SQD9 tumors; details: IV 250 μCi, PET-CT
Experimental: In vivo tracer uptake assay. All in vivo experiments were performed with approval of UCL Comité d'Ethique pour l'Expérimentation Animale (approval ID 2014/UCL/MD/014) according to national and European animal care regulations. To avoid inter-subject variability, 500,000 SiHa-shCTR and SiHa-shMCT1 cells in a HBSS:Matrigel 1:1 solution were respectively injected in the left and right flank of same 6.5 week-old male NMRI nude mice. In another model, 1,000,000 SQD9 cells in a HBSS:Matrigel 1:1 solution were injected on the back of same 6.5 week-old male NMRI nude mice. Experiments were performed on tumors of ˜10 mm in diameter, i.e., about 3 weeks tumor cell inoculation. For intravenous injection, MCT1 inhibitor AR-C155858 (Tocris) was dissolved in 0.9% NaCl with 10% (2-hydroxypropyl)-β-cyclodextrin at a concentration of 2.5 mg/ml (Vijay et al., Pharm Res, 2015, 32, 1894-1906). For intravenous injection, MCT1 inhibitor AZD3965 (Selleckchem) was first dissolved in pure ethanol at a concentration of 100 mg/ml, then diluted in 0.9% NaCl with 10% (2-hydroxypropyl)-β-cyclodextrin at a final concentration of 2.5 mg/ml. […] Tumor localization was determined on PET/CT fused images. […] Tracer uptake is expressed as standard uptake value (SUV) calculated on the mean value of voxels within the manually defined 3D volume of interest (VOI).

SiHa tumors = assay: In vivo tracer uptake assay (PET/CT), mice bearing SiHa-shCTR and SiHa-shMCT1 tumors
Experimental: In vivo tracer uptake assay. All in vivo experiments were performed with approval of UCL Comité d'Ethique pour l'Expérimentation Animale (approval ID 2014/UCL/MD/014) according to national and European animal care regulations. To avoid inter-subject variability, 500,000 SiHa-shCTR and SiHa-shMCT1 cells in a HBSS:Matrigel 1:1 solution were respectively injected in the left and right flank of same 6.5 week-old male NMRI nude mice. In another model, 1,000,000 SQD9 cells in a HBSS:Matrigel 1:1 solution were injected on the back of same 6.5 week-old male NMRI nude mice. Experiments were performed on tumors of ˜10 mm in diameter, i.e., about 3 weeks tumor cell inoculation. For intravenous injection, MCT1 inhibitor AR-C155858 (Tocris) was dissolved in 0.9% NaCl with 10% (2-hydroxypropyl)-β-cyclodextrin at a concentration of 2.5 mg/ml (Vijay et al., Pharm Res, 2015, 32, 1894-1906). For intravenous injection, MCT1 inhibitor AZD3965 (Selleckchem) was first dissolved in pure ethanol at a concentration of 100 mg/ml, then diluted in 0.9% NaCl with 10% (2-hydroxypropyl)-β-cyclodextrin at a final concentration of 2.5 mg/ml. (±)-[^18F]-3-fluoro-2-hydroxypropionate (150-250 μCO was injected in the tail vein of the animals 10 min after the delivery of AR-C155858 (5 mg/Kg), AZD3965 (5 mg/Kg), or vehicle (70 μL). At indicated times, a whole body 10-min static PET imaging (small-animal Mosaic PET Scan system, Philips Medical Systems) directly followed by a 10 min transmission CT scan (NanoSPECT/CT Small Animal Imager, Bioscan; source: 370 MBq ^137Cs; X-Ray tube voltage: 55 kVp; number of projections: 180; exposure time 1000 ms) were performed on isoflurane-anesthetized mice kept at 35° C. PET images were corrected for attenuation and reconstructed using fully 3D iterative algorithm 3D-RAMLA in a 128×128×120 matrix, with a voxel size of 1 mm^3. CT images were reconstructed with a voxel size of 0.221×0.221×0.221 mm^3. 2D Regions of interest (ROIs) were manually delineated on PET images using the PMOD software version 3.5 (PMOD technologies Ltd). Tumor localization was determined on PET/CT fused images. Ribcage and skin were used as internal and external limits, respectively. Tracer uptake is expressed as standard uptake value (SUV) calculated on the mean value of voxels within the manually defined 3D volume of interest (VOI).

MCT1 = molecular target: T2, MCT1 (Homo sapiens, UniProt P53985); assay: In vivo inhibition of tracer uptake by MCT1 inhibitors, SQD9 tumor-bearing mice (PET/CT); details: 5 mg/Kg IV 10 min before tracer, images 30 min after tracer; SQD9 tumors, liver
T2 construct: the experiment was repeated using SQD9 human laryngeal squamous cell carcinoma cells in mice; endogenous in cells; host or cells: SQD9 xenograft tumours in NMRI nude mice
T2 sequence (P53985 1-500): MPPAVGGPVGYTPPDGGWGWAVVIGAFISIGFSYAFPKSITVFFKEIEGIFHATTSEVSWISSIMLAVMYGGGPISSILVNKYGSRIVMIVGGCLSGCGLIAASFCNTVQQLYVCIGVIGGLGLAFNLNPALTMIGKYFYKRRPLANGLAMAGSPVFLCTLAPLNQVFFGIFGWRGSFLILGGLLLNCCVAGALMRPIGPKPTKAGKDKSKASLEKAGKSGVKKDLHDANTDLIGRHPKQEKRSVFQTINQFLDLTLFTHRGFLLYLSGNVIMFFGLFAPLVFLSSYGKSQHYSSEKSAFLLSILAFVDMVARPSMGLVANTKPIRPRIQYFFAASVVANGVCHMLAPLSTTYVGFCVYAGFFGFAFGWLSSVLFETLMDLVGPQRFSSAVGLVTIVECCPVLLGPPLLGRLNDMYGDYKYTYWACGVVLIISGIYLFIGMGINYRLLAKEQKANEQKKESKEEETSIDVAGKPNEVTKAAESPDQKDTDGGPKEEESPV
T2 sequence (P35613 140-385 partner limits assumed): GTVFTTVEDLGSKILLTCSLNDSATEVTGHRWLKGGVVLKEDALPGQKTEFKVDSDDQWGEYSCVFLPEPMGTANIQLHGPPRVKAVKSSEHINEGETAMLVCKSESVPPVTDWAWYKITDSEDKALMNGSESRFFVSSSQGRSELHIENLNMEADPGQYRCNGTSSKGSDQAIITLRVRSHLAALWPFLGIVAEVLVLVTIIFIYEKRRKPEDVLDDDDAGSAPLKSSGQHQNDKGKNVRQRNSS
Experimental: In vivo tracer uptake assay. […] In another model, 1,000,000 SQD9 cells in a HBSS:Matrigel 1:1 solution were injected on the back of same 6.5 week-old male NMRI nude mice. Experiments were performed on tumors of ˜10 mm in diameter, i.e., about 3 weeks tumor cell inoculation. […] 2D Regions of interest (ROIs) were manually delineated on PET images using the PMOD software version 3.5 (PMOD technologies Ltd). Tumor localization was determined on PET/CT fused images. Ribcage and skin were used as internal and external limits, respectively. Tracer uptake is expressed as standard uptake value (SUV) calculated on the mean value of voxels within the manually defined 3D volume of interest (VOI).

## 3-fluoropyruvate
Rabbit muscle LDH
  reduction of 3-fluoropyruvate to 3-fluoro-2-hydroxypropionate by LDH: can be reduced to 3-fluoralacate by lactate dehydrogenase (LDH)

## O=C(O)C(O)C[18F] (racemic) [(±)-[^18F]-3-fluoro-2-hydroxypropionate, [^18F]-3-fluoro-2-hydroxypropionic acid]
SQD9 cells
  intracellular 18F dose: ~0.3 % of the initial dose
SiHa cells
  intracellular 18F dose: ~0.1 % of the initial dose
HeLa cells
  intracellular 18F dose: ~0.1 % of the initial dose
SQD9 tumors
  tracer uptake by SQD9 tumors: the tumors captured and accumulated the tracer
SiHa tumors; 30 min after tracer injection
  bone labeling indicating defluorination: no detectable bone labeling
  discrimination of SiHa-shCTR and SiHa-shMCT1 tumors by the tracer: no apparent discrimination of SiHa-shCTR and SiHa-shMCT1
SiHa tumors; 60 min after tracer injection
  bone labeling indicating defluorination: spinal and joint labeling was detected, indicating that some defluorination had occurred
SiHa tumors; IV 150-250 μCi, PET/CT
  time of best tumor contrast after tracer injection: 30 min
SiHa tumors; IV 150-250 μCi, PET/CT, 30 min after tracer injection
  labeling of other organs (tracer distribution): the gut and the liver, were also labeled
SiHa tumors; bladder labeling before and after systemic MCT1 inhibition
  route of tracer clearance: urine is the preferred route

## Cc1[nH]nc(C(F)(F)F)c1Cc1sc2c(c1C(=O)N1C[C@](C)(O)CO1)c(=O)n(C)c(=O)n2C(C)C [AZD3965]
MCT1
  change in tracer uptake (SUV) after MCT1 inhibitor: highly significant decrease in tracer uptake in the tumors and liver
